How the values were obtained:
Type in all cases: in vivo, human
[1] = system: azurophilic granules of neutrophils; test: Release of glycosidases from azurophilic granules (NAGA and β-glucuronidase); details: healthy volunteers, 3×500 mg; within 24 hours after the last dose
Protocol: (§1) A trial on healthy volunteers was conducted and the influence of azithromycin given in a dosage of 3×500 mg on selected inflammation-relevant parameters was followed up.
(§2) Each subject received two standard 250 mg capsules of azithromycin (Sumamed®, PLIVA Zagreb) on three consecutive days. Immediately before the treatment and 2 h and 30 min, 24 h and 28 days after the third and last dose of azithromycin blood was collected from the cubital vein into EDTA-containing tubes. Aliquots were taken for cell counting, smear preparation, polymorphonuclear cell and serum isolation.
Glycosidases are enzymes that catalyse hydrolysis of glycosidic bonds of oligosacharides and other glycosides. They are specific to the glycosidic part of substrate molecule. N-acetyl-β-D-glucosaminidase (NAGA) and β-glucuronidase are such enzymes. They are lysosomal enzymes, both located in azurophilic (primary; peroxidase-positive) granules of neutrophils. Since degranulation of neutrophils is present during inflammation, many authors choose these enzymes as markers of degranulation and for estimation of neutrophil reactivity. The catalytic concentration of both enzymes in serum and in neutrophil lysates was determined using the fluorimetric method described by O'Brien et al. (New Engl. J. Med. (1970) 283: 15-20) for NAGA and Glaser & Sly (J. Lab. Clin. Med. (1973) 82: 969) for β-glucuronidase. […]

[2] = system: β-glucuronidase; test: β-glucuronidase activity in serum, fluorimetric; details: healthy volunteers; for β-glucuronidase (serum): azithromycin 3×500 mg, baseline 2.88 ± 0.7
Protocol: as §1, §2
(§3) Glycosidases are enzymes that catalyse hydrolysis of glycosidic bonds of oligosacharides and other glycosides. They are specific to the glycosidic part of substrate molecule. N-acetyl-β-D-glucosaminidase (NAGA) and β-glucuronidase are such enzymes. They are lysosomal enzymes, both located in azurophilic (primary; peroxidase-positive) granules of neutrophils. Since degranulation of neutrophils is present during inflammation, many authors choose these enzymes as markers of degranulation and for estimation of neutrophil reactivity. The catalytic concentration of both enzymes in serum and in neutrophil lysates was determined using the fluorimetric method described by O'Brien et al. (New Engl. J. Med. (1970) 283: 15-20) for NAGA and Glaser & Sly (J. Lab. Clin. Med. (1973) 82: 969) for β-glucuronidase.

[3] = system: IL-6; test: Serum IL-6 concentration, ELISA; details: healthy volunteers, azithromycin 3×500 mg, baseline 3.4 ± 1.05
Protocol: as §1, §2
(§4) Cytokine and chemokine concentrations were determined using ELISA kits. […] Rapid and pronounced decreases in the plasma concentrations of the neutrophil-stimulating chemokine, IL-8, and GR0-α were observed 2 h and 30 min and 24 h after the last dose of azithromycin (Table 1. The concentration of IL-8 returned essentially to baseline after 28 days, while that of GRO-[…] was decreased at this time.

[4] = system: myeloperoxidase (MPO); test: Myeloperoxidase density on digital image of blood smear, healthy volunteer trial; details: healthy volunteers, azithromycin 3×500 mg, baseline 105 ± 13
Protocol: as §1, §2
(§5) The activity of MPO was assessed from the intensity of staining of neutrophils in blood smears and in cell lysates by ELISA. After fixation in ethanol-formaldehyde, smears were incubated in a substrate solution containing hydrogen peroxide and benzidine (SIGMA). After incubation, smears were counterstained with Giemsa solution. MPO value positivity_of 100 granulocytes was evaluated and scored from 0 to 4+ on the basis of the intensity of the precipitated dye in cytoplasm. Therefore, the value of the score could be from 0 to 400. Normal values of score range (290-390) were taken from this study before azithromycin administration. MPO activity was also evaluated on the digital image of smear taken with a digital camera under the high magnification (×1000) of light microscope. MPO activities in blood smear neutrophils decreased from 2 h and 30 min to 24 h after the last azithromycin dose and returned to baseline after 28 days (Table 1). The change in neutrophil enzyme protein followed the same pattern as that in intracellular enzyme activity, decreasing from 2 h and 30 min to 24 h after the last dose of azithromycin and returning to baseline after 28 days. Both methodological approaches of MPO determination confirmed each other. Degranulation presented with lower MPO neutrophil density determined_with cytochemistry was associated with lower MPO ELISA concentrations in neutrophil lysates.

[5] = system: sVCAM; test: Serum sVCAM concentration, ELISA; details: healthy volunteers, azithromycin 3×500 mg, baseline 13.59 ± 2.90
Protocol: as §1, §2
For quantitative determination of serum concentration of human sVCAM, an ELISA kit was used (R&D systems, UK)

[6] = system: IL-1; test: Serum IL-1 concentration, ELISA; details: healthy volunteers, azithromycin 3×500 mg, baseline 0.291 ± 0.11
Protocol: as §1, §2, §4

[7] = system: N-acetyl-β-D-glucosaminidase (NAGA); test: NAGA activity in neutrophil (PMN) lysates, fluorimetric; details: healthy volunteers; for NAGA (PMN): azithromycin 3×500 mg, baseline 4.15 ± 01.6
Protocol: as §1, §2, §3

[8] = system: N-acetyl-β-D-glucosaminidase (NAGA); test: NAGA activity in serum, fluorimetric; details: healthy volunteers; for NAGA (serum): azithromycin 3×500 mg, baseline 9.16 ± 1.6
Protocol: as §1, §2, §3

[9] = system: myeloperoxidase (MPO); test: MPO enzyme protein by ELISA in neutrophil lysates; details: healthy volunteers, azithromycin 3×500 mg, baseline 54.22 ± 12.61
Protocol: as §1, §2
as §5, with “Both methodological approaches of MPO determination confirmed each other.” left out
Proteins in PMN samples were determined according to the method of Bradford (Anal. Biochem. (1976) 72: 248-254) using bovine serum albumin as a standard.

[10] = system: myeloperoxidase (MPO); test: Myeloperoxidase cytochemical score in blood smear neutrophils, healthy volunteer trial; details: healthy volunteers, azithromycin 3×500 mg, baseline 337 ± 29, score 0-400
Protocol: as §1, §2, §5

[11] = system: IL-8; test: Serum IL-8 concentration, ELISA; details: healthy volunteers, azithromycin 3×500 mg, baseline 29.47 ± 15.44
Protocol: as §1, §2, §4

[12] = system: β-glucuronidase; test: β-glucuronidase activity in neutrophil (PMN) lysates, fluorimetric; details: healthy volunteers; for β-glucuronidase (PMN): azithromycin 3×500 mg, baseline 4.12 ± 2.7
Protocol: as §1, §2, §3

[13] = 3×500 mg, 24 hours after the last dose

CC[C@H]1OC(=O)[C@H](C)[C@@H](O[C@H]2C[C@@](C)(OC)[C@@H](O)[C@H](C)O2)[C@H](C)[C@@H](O[C@@H]2O[C@H](C)C[C@H](N(C)C)[C@H]2O)[C@](C)(O)C[C@@H](C)CN(C)[C@H](C)[C@@H](O)[C@]1(C)O [azithromycin, 9-deoxo-9-dihydro-9a-methyl-9a-aza-9a-homoerythromycin A]
release of enzymes from azurophilic granules [1]: 40-50% | change of activity of β-glucuronidase in serum ([2]; 3×500 mg, during the first 24 hours after the last dose): did not show any changes | β-glucuronidase (serum) ([2]; 2 h and 30 min after last dose): 3.01 ± 0.6 µmol/L/min | β-glucuronidase (serum) ([2]; 24 hours after last dose): 2.95 ± 0.5 µmol/L/min | β-glucuronidase (serum) ([2]; 28 days after last dose): 3.93 ± 1.2 µmol/L/min | IL-6 (serum) ([3]; 2 h and 30 min after last dose): 2.7 ± 1.49 pg/mL | IL-6 (serum) ([3]; 24 hours after last dose): 2.5 ± 1.48 pg/mL | IL-6 (serum) ([3]; 28 days after last dose): 1.15 ± 0.61 pg/mL | myeloperoxidase (density) ([4]; 2 h and 30 min after last dose): 130 ± 16 | myeloperoxidase (density) ([4]; 24 hours after last dose): 131 ± 17 | myeloperoxidase (density) ([4]; 28 days after last dose): 115 ± 19 | sV-CAM (serum) ([5]; 2 h and 30 min after last dose): 12.21 ± 4.12 ng/mL | sV-CAM (serum) ([5]; 24 hours after last dose): 10.29 ± 2.12 ng/mL | sV-CAM (serum) ([5]; 28 days after last dose): 10.74 ± 2.05 ng/mL | IL-1 (serum) ([6]; 2 h and 30 min after last dose): 0.533 ± 0.15 pg/mL | IL-1 (serum) ([6]; 24 hours after last dose): 1.07 ± 0.19 pg/mL | IL-1 (serum) ([6]; 28 days after last dose): 0.29 ± 0.20 pg/mL | decrease in NAGA in granulocytes ([7]; 3×500 mg, 2 h and 30 min after the last dose, vs initial values): about 70% | NAGA activity in PMN lower compared to initial values [7, 13]: about 40% | NAGA activity in PMN increase from the 2 h and 30 min value ([7]; 3×500 mg, 24 hours later): about 30% | activity of NAGA (PMN) increased over the initial values ([7]; 3×500 mg, after 28 days): 40% | NAGA (PMN) ([7]; 2 h and 30 min after last dose): 1.13 ± 0.72 nmol × 10^−6 cells × min^−1 | NAGA (PMN) ([7]; 24 hours after last dose): 2.62 ± 1.6 nmol × 10^−6 cells × min^−1 | NAGA (PMN) ([7]; 28 days after last dose): 5.95 ± 3.7 nmol × 10^−6 cells × min^−1 | increase of activity of NAGA in serum vs initial values ([8]; 3×500 mg, 2 h and 30 min after the last dose): about 30% | activity of NAGA in serum higher than the initial values [8, 13]: approximately 50% | serum NAGA values higher than initial values ([8]; 3×500 mg, 28 days after the last dose): 70% | NAGA (serum) ([8]; 2 h and 30 min after last dose): 11.52 ± 2.2 µmol/L/min | NAGA (serum) ([8]; 24 hours after last dose): 13.7 ± 1.5 µmol/L/min | NAGA (serum) ([8]; 28 days after last dose): 14.87 ± 1.9 µmol/L/min | myeloperoxidase (PMN) ([9]; 2 h and 30 min after last dose): 70.85 ± 19.91 μg/mg protein | myeloperoxidase (PMN) ([9]; 24 hours after last dose): 26.74 ± 2.51 μg/mg protein | myeloperoxidase (PMN) ([9]; 28 days after last dose): 70.01 ± 17.62 μg/mg protein | myeloperoxidase (score) ([10]; 2 h and 30 min after last dose): 326 ± 26 | myeloperoxidase (score) ([10]; 24 hours after last dose): 315 ± 22 | myeloperoxidase (score) ([10]; 28 days after last dose): 347 ± 18 | IL-8 (serum) ([11]; 2 h and 30 min after last dose): 10.61 ± 3.81 pg/mL | IL-8 (serum) ([11]; 24 hours after last dose): 14.60 ± 10.75 pg/mL | IL-8 (serum) ([11]; 28 days after last dose): 23.03 ± 19.72 pg/mL | decrease of activities of β-glucuronidase in PMN compared to initial values ([12]; 3×500 mg, 24 hours): about 50% | β-glucuronidase activity in PMN higher compared to the initial values ([12]; 3×500 mg, 28 days later): about 300% | decrease of activities of β-glucuronidase in PMN compared to initial values ([12]; 3×500 mg, after 2 h and 30 min): about 20% | β-glucuronidase (PMN) ([12]; 2 h and 30 min after last dose): 3.21 ± 2.3 nmol × 10^−6 cells × min^−1 | β-glucuronidase (PMN) ([12]; 24 hours after last dose): 1.58 ± 0.4 nmol × 10^−6 cells × min^−1 | β-glucuronidase (PMN) ([12]; 28 days after last dose): 15.37 ± 11.4 nmol × 10^−6 cells × min^−1

From US20050054587A1, “Novel therapeutic indication of azithromycin for treatment of non-infective inflamatory diseases” (priority 2001, published 2005)
